44 compounds from patent US7981919B2, “Tricyclic heteroaryl piperazines, pyrrolidines and azetidines as serotonin receptor modulators” (Athersys, Inc., priority 2004, dated 2011) can be followed below.

Some results are limits rather than exact numbers.

One assay addresses T1, human 5HT2c receptor (VNV Isoform) (Homo sapiens, UniProt P28335, I156V/I160V, form not given).
T1 sequence (P28335 1-458 I156V/N158S/I160V): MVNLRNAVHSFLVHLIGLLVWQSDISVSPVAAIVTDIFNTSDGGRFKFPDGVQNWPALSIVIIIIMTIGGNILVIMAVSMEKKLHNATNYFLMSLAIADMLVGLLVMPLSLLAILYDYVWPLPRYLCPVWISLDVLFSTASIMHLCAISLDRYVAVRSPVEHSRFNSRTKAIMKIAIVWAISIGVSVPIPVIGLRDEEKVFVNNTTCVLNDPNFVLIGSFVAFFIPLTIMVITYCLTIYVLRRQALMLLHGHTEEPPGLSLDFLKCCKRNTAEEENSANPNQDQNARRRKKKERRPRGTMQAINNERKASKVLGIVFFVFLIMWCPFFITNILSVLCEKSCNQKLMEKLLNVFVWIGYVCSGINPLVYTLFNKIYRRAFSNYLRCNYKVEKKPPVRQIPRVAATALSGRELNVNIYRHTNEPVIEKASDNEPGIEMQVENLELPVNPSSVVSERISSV
In words: Calcium mobilization (FLIPR) 5HT2c receptor agonist assay in HEK 293 EBNA cells. Type of assay: cell-based. As to conditions: HEK 293 EBNA cells expressing human 5HT2c receptor, ligand-induced calcium release, read-out: 5-HT2c EC50 (hVSV). On the procedure:
The following procedure was utilized to evaluate representative compounds of the present invention as 5HT2c receptor agonists.
5HT was utilized as a positive control. Ligand-induced calcium release and consequent fluorescence was measured on a Fluorometric Imaging Plate Reader (FLIPR, Molecular Device, CA).
All data were analyzed by nonlinear least square curve fitting using Prism 4.0 software. Agonist stimulation of calcium-induced fluorescence in FLIPR was fitted to sigmoidal dose response using equation Y=Bottom+(Top−Bottom)/(1+10 ? ((Log EC50−X))), where X is the logarithm of concentration of compounds and Y is the fluorescent response.
(In general: Calcium flux is commonly read through the fluorescence of an indicator in the cells.)
For the compound `Cc1sc2c(c1Br)C1CNCCC1C2` (single isomer, unassigned) [33, Enantiomer 1], the EC50 is below 1 µM.

In the case of `c1cc2c(s1)C1CNCC1C2` (stereo not drawn) [Example 9, 1,2,3,3a,7,7a-Hexahydro-4-thia-2-aza-cyclopenta[α]pentalene], the EC50 is above 10 µM.

Take `Brc1cc2c(s1)C1CCNCC1C2` (stereo not drawn) [Example 31, 2-Bromo-4,5,6,7,7a,8-hexahydro-3bH-3-thia-6-aza-cyclopenta[α]indene]: the EC50 was below 1 µM. On to `Cc1sc2c(c1Br)C1CNCCC1C2` (single isomer, unassigned) [33, Enantiomer 2], for which the EC50 was below 10 µM. Turning to `Cc1sc2c(c1Br)C(C)C1CNCC21` (single isomer, unassigned) [27, Enantiomer 2], the EC50 is below 0.1 µM. `CC1c2sccc2C2CNCC12` (single isomer, unassigned) [34, Enantiomer 1]: the EC50 is below 10 µM. The same measure, in the same setting: for `CCOC(=O)c1c(N)sc2c1CC1CNCC21` (stereo not drawn) [Example 1, 5-Amino-1,2,3,3a,7,7a-hexahydro-4-thia-2-aza-cyclopenta[α]pentalene-6-carboxylic acid ethyl ester] the value was below 0.1 µM; for `CCOC(=O)c1c(Br)sc2c1CC1CNCC21` (stereo not drawn) [Example 2, 5-Bromo-1,2,3,3a,7,7a-hexahydro-4-thia-2-aza-cyclopenta[α]pentalene-6-carboxylic acid ethyl ester], below 0.1 µM. On to `Cc1c(Cl)sc2c1C(C)C1CNCC21` (single isomer, unassigned) [26, Enantiomer 2], for which the EC50 is below 0.1 µM. Still for that read-out and setting: for `COc1c(Cl)sc2c1CC1CNCC21` (single isomer, unassigned) [42, Enantiomer 2] the value was below 10 µM; for `FC(F)(F)c1csc2c1C1CNCC1C2` (stereo not drawn) [Example 23, 3-Trifluoromethyl-3b,4,5,6,6a,7-hexahydro-1-thia-5-aza-cyclopenta[α]pentalene], below 1 µM; for `Cc1sc2c(c1Cl)CC1CNCC21` (stereo not drawn) [Example 15, 6-Chloro-5-methyl-1,2,3,3a,7,7a-hexahydro-4-thia-2-aza-cyclopenta[α]pentalene], below 0.1 µM.

With `N#Cc1c(Br)sc2c1C1CNCC1C2` (stereo not drawn) [Example 11, 2-Bromo-3b,4,5,6,6a,7-hexahydro-1-thia-5-aza-cyclopenta[α]pentalene-3-carbonitrile], the EC50 was below 10 µM.

For `Nc1sc2c(c1C(=O)c1cccc(C(F)(F)F)c1)CC1CNCC21` (stereo not drawn) [Example 5, (5-Amino-1,2,3,3a,7,7a-hexahydro-4-thia-2-aza cyclopenta[α]-pentalen-6-yl)-(3-trifluoromethyl-phenyl)-methanone], the EC50 was below 10 µM. Turning to `N#Cc1c(Cl)sc2c1C1CNCC1C2` (stereo not drawn) [Example 10, 2-Chloro-3b,4,5,6,6a,7-hexahydro-1-thia-5-aza-cyclopenta[α]pentalene-3-carbonitrile], the EC50 was below 10 µM. With `CC1c2cc(Br)sc2C2CNCC12` (single isomer, unassigned) [36, Enantiomer 1], the EC50 was below 1 µM. Still for that read-out and setting: the same measure for `CCOC(=O)c1csc2c1CC1CNCC21` (stereo not drawn) [Example 3, 1,2,3,3a,7,7a-Hexahydro-4-thia-2-aza-cyclopenta[α]pentalene-6-carboxylic acid ethyl ester]: below 0.1 µM; for `Cc1ccc(C(=O)c2c(N)sc3c2CC2CNCC32)cc1` (stereo not drawn) [Example 6, (5-Amino-1,2,3,3a,7,7a-hexahydro-4-thia-2-aza-cyclopenta[α]-pentalen-6-yl)-p-tolyl-methanone]: below 1 µM.

For `N#Cc1c(Cl)sc2c1CC1CNCC21` (stereo not drawn) [Example 12, 5-Chloro-1,2,3,3a,7,7a-hexahydro-4-thia-2-aza-cyclopenta[α]pentalene-6-carbonitrile], the EC50 is below 0.1 µM. The same measure, in the same setting: for `Brc1cc2c(s1)CC1CNCC21` (stereo not drawn) [Example 21, 2-Bromo-3b,4,5,6,6a,7-hexahydro-1-thia-5-aza-cyclopenta[α]pentalene] the value was below 0.1 µM. In the case of `COC(=O)c1cc2c(s1)C1CNCC1C2` (stereo not drawn) [Example 8, 1,2,3,3a,7,7a-Hexahydro-4-thia-2-aza-cyclopenta[α]pentalene-5-carboxylic acid methyl ester], the EC50 is below 10 µM. Turning to `FC(F)(F)c1sc2c(c1Br)CC1CNCC21` (single isomer, unassigned) [39, Enantiomer 2], the EC50 was below 0.1 µM. As for `CC1c2cc(Br)sc2C2CNCC12` (single isomer, unassigned) [36, Enantiomer 2], the EC50 was below 10 µM. In the case of `CCOC(=O)c1c(Cl)sc2c1CC1CNCC21` (stereo not drawn) [Example 4, 5-Chloro-1,2,3,3a,7,7a-hexahydro-4-thia-2-aza-cyclopenta[α]pentalene-6-carboxylic acid ethyl ester], the EC50 was below 0.1 µM. On the same count and under the same terms, for `COc1csc2c1CC1CNCC21` (stereo not drawn) [Example 20, 6-Methoxy-1,2,3,3a,7,7a-hexahydro-4-thia-2-aza-cyclopenta[α]pentalene] the value was below 1 µM; for `CC(C)(C)C(=O)c1sc2c(c1Br)CC1CNCC21` (single isomer, unassigned) [43, Enantiomer 2], below 1 µM; for `Nc1sc2c(c1C(=O)c1ccc(Cl)cc1)CC1CNCC21` (stereo not drawn) [Example 7, (5-Amino-1,2,3,3a,7,7a-hexahydro-4-thia-2-aza-cyclopenta[α]-pentalen-6-yl)-(4-chloro-phenyl)-methanone], below 10 µM.

Consider `Cc1sc2c(c1Br)C(C)C1CNCC21` (single isomer, unassigned) [27, Enantiomer 1], for which the EC50 is below 1 µM. On to `Brc1sc2c(c1Br)CC1CNCC21` (stereo not drawn) [Example 19, 5,6-Dibromo-1,2,3,3a,7,7a-hexahydro-4-thia-2-aza-cyclopenta[α]pentalene], for which the 50% effective concentration (EC50) is below 1 µM. For the compound `c1ccc2c3c(sc2c1)C1CNCC1C3` (single isomer, unassigned) [45, Enantiomer 2], the EC50 was below 1 µM.

Regarding `Cc1c(C(F)(F)F)sc2c1CC1CNCC21` (single isomer, unassigned) [40, Enantiomer 2], the EC50 is below 0.1 µM. `Brc1cc2c(s1)CC1CNCCC21` (single isomer, unassigned) [28, Enantiomer 1]: the EC50 is below 10 µM. In the case of `CC1c2sc(Cl)cc2C2CNCC12` (stereo not drawn) [Example 24, 2-Chloro-7-methyl-3b,4,5,6,6a,7-hexahydro-1-thia-5-aza-cyclopenta[α]pentalene], the EC50 was below 1 µM.

On to `COc1c(C(F)(F)F)sc2c1CC1CNCC21` (single isomer, unassigned) [41, Enantiomer 2], for which the EC50 was below 0.1 µM. Regarding `Brc1csc2c1CC1CNCC21` (single isomer, unassigned) [37, Enantiomer 1], the concentration giving a half-maximal response (EC50) is below 1 µM. On the same count and under the same terms, for `N#Cc1c(Br)sc2c1CC1CNCC21` (centres unmarked) [Example 13, 5-Bromo-1,2,3,3a,7,7a-hexahydro-4-thia-2-aza-cyclopenta[ ]pentalene-6-carbonitrile] the value was below 0.1 µM. Still for that read-out and setting: the same measure for `Cc1c(Br)sc2c1C1CNCC1CC2` (single isomer, unassigned) [46, Enantiomer 2]: below 1 µM; for `Brc1cc2c(s1)CC1CCNCC21` (single isomer, unassigned) [29, Enantiomer 2]: below 10 µM.

With `N#Cc1csc2c1CC1CNCC21` (stereo not drawn) [Example 14, 1,2,3,3a,7,7a-Hexahydro-4-thia-2-aza-cyclopenta[α]pentalene-6-carbonitrile], the 50% effective concentration (EC50) was below 1 µM. Same read-out and setting: the same measure for `CC1c2sc(I)cc2C2CNCC12` (stereo not drawn) [Example 25, 2-Iodo-7-methyl-3b,4,5,6,6a,7-hexahydro-1-thia-5-aza-cyclopenta[α]pentalene]: below 1 µM. In the case of `Brc1sc2c(c1Br)C1CNCC1C2` (stereo not drawn) [Example 22, 2,3-Dibromo-3b,4,5,6,6a,7-hexahydro-1-thia-5-aza-cyclopenta[α]pentalene], the half-maximal effective concentration (EC50) is below 0.1 µM. Same read-out and setting: the same measure for `Cc1c(Cl)sc2c1CC1CNCC21` (stereo not drawn) [Example 17, 5-Chloro-6-methyl-1,2,3,3a,7,7a-hexahydro-4-thia-2-aza-cyclopenta[α]pentalene]: below 0.1 µM.

As to `Brc1cc2c(s1)C1CNCC1C2` (single isomer, unassigned) [38, Enantiomer 1], the EC50 is below 0.1 µM.

The assay is the same for the next values; noted with them: read-out: 5-HT2c EC50 (hVSV), HEK 293 EBNA cells expressing human 5HT2c receptor, ligand-induced calcium release.
On to `Brc1cc2c(s1)C1CNCCC1C2` (single isomer, unassigned) [30, Enantiomer 2], for which the EC50 is above 10 µM.

In general, EC50 refers to the concentration giving half of the maximal effect.
